{"source": "patent US20180030541A1", "about": "“METHOD FOR PREDICTING SENSITIVITY TO VASCULAR ENDOTHELIAL GROWTH FACTOR RECEPTOR INHIBITOR” (CBSBIOSCIENCE INC., priority 2014, published 2018)", "origin": "cited, not measured here", "tested_on": "hepatocellular carcinoma", "conditions": "drug approved for treating hepatocellular carcinoma; cancer patients"}
{"compound": "CNC(=O)c1cc(Oc2ccc(NC(=O)Nc3ccc(Cl)c(C(F)(F)F)c3)cc2)ccn1", "note": "[Nexavar, Sorafenib]", "values": [{"measurement": "side effects", "value": "very high"}, {"measurement": "treatment rate", "value": "2-3%"}]}
